According to US20250195521A1 (Revolution Medicines, Inc., priority 2020, published 2025):
Several values for one entry are separate records, joined by “and”; a condition that tells them apart may be missing. Identical values can stand only once. Like-named read-outs stand apart in the source and are kept apart here.

Columns and labels:
[1] = test system: Capan-1 cells (K-Ras G12V); experiment: CellTiter-Glo cell viability, Capan-1; format: cell-based, human; settings: Homo sapiens, CAPAN-1, 120 h, K-Ras G12V, 5-day treatment; read-out: Capan-1 Cell Viability IC50
Procedure, shortened: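 Compounds were dispensed directly onto seeded cells and incubated until day 5, then plates were equilibrated at room temperature for about 30 min before CellTiter-Glo luminescence readout. Signals were normalized as (sample/average DMSO)×100 and fitted with a four-parameter logistic model.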

KRAS G12C = KRAS G12C (Homo sapiens (Human), UniProt P01116+P62937, G12C); experiment: Ras-Raf disruption/FRET/MOA assay (BRAF RBD, Cyclophilin A); format: biochemical; settings: read-out: KRAS G12C FRET IC50
Chain of KRAS G12C (P01116-2 other isoform, or with tags, fused parts or gaps G12C): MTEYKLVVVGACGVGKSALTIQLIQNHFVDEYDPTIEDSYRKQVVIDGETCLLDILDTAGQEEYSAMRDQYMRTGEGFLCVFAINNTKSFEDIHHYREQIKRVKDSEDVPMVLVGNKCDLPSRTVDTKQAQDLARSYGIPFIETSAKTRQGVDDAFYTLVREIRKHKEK
Chain of KRAS G12C (P62937 whole entry): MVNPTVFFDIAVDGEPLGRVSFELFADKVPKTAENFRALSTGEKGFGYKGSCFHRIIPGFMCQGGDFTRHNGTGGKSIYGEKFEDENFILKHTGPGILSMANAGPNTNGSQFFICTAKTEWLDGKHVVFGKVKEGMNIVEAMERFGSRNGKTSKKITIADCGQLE
Procedure, shortened: (§1)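 25 μM tagless Cyclophilin A, 12.5 nM His6-Ras-GMPPNP and 50 nM GST-BRAF RBD in HEPES pH 7.3 buffer with 5 mM MgCl2, with compound (10-point 3-fold series from 30 μM final) for 3 h at 25 °C. Anti-His Eu and anti-GST APC then added for 1.5 h. IC50 from TR-FRET ratio decrease versus DMSO.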

[2] = test system: K-Ras G12C (NCI-H358 cells); experiment: Potency assay: pERK in NCI-H358 cells; format: cell-based, human; settings: NCI-H358 cells, 4 hours, read-out: pERK EC50 (H358 KRAS G12C)
Procedure, shortened: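 Cells plated the day before were exposed for 4 h at 37° C, 5% CO2 to a 10-point, 3-fold DMSO dilution series (10 mM top stock), in duplicate. Phospho-ERK was read by AlphaLISA SureFire Ultra or by In-Cell Western with DRAQ5 DNA stain, and IC50 came from a 4-parameter sigmoidal fit.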

NCI-H358 (K-Ras G12C) = experiment: CellTiter-Glo cell viability assay, NCI-H358; format: cell-based, human; settings: 5-day treatment, read-out: H358 Cell Viability assay data (K-Ras G12C, IC50)
Procedure, shortened: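 NCI-H358 cells were treated with test compounds dispensed directly into the assay wells and incubated until day 5. Viability was then read by CellTiter-Glo luminescence after a ~30 min room-temperature equilibration, normalized to the DMSO average (×100), and fit with a four-parameter logistic curve.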

[3] = molecular target: K-Ras G12C(GMP-PNP) binding to BRAF RBD (Homo sapiens (Human), UniProt P01116+P62937, G12C); experiment: Disruption of BRAF RBD interaction with K-Ras (FRET / MOA assay), K-Ras G12C; format: biochemical
Chain of K-Ras G12C(GMP-PNP) binding to BRAF RBD (P01116 other isoform, or with tags, fused parts or gaps G12C): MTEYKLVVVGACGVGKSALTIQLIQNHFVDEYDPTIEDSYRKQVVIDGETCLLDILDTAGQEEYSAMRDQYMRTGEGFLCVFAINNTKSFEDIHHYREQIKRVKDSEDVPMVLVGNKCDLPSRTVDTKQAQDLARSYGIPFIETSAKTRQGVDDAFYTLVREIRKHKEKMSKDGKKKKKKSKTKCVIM
Chain of K-Ras G12C(GMP-PNP) binding to BRAF RBD (P62937 whole entry): as the sequence (P62937 whole entry) above
Description: Note—The following protocol describes a procedure for monitoring disruption of K-Ras G12C(GMP-PNP) binding to BRAF^RBD by a compound of the invention. This protocol may also be executed substituting other Ras proteins or nucleotides.
The purpose of this biochemical assay was to measure the ability of test compounds to facilitate ternary complex formation between a nucleotide-loaded K-Ras isoform and Cyclophilin A; the resulting ternary complex disrupts binding to a BRAF^RBD construct, inhibiting K-Ras signaling through a RAF effector. Data is reported as IC50 values.
Compound was present in plate wells as a 10-point 3-fold dilution series starting at a final concentration of 30 μM. After incubation at 25° C. for 3 hours, a mixture of Anti-His Eu—W1024 and anti-GST allophycocyanin was then added to assay sample wells at final concentrations of 10 nM and 50 nM, respectively, and the reaction incubated for an additional 1.5 hours. […] Compounds that facilitate disruption of a K-Ras: RAF complex were identified as those eliciting a decrease in the TR-FRET ratio relative to DMSO control wells.

KRAS WT = KRAS WT (Homo sapiens (Human), UniProt P01116+P62937); experiment: Ras-Raf disruption/FRET/MOA assay (BRAF RBD, Cyclophilin A); format: biochemical; settings: read-out: KRAS WT FRET data IC50
Chain of KRAS WT (P01116 other isoform, or with tags, fused parts or gaps): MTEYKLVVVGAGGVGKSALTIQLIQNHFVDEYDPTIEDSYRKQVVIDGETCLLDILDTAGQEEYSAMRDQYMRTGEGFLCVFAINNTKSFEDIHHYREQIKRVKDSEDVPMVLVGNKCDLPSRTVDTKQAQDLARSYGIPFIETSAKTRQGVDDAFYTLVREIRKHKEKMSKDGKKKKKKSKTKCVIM
Chain of KRAS WT (P62937 whole entry): as the sequence (P62937 whole entry) above
Procedure, shortened: as §1

KRAS G13C = KRAS G13C (Homo sapiens (Human), UniProt P01116+P62937, G13C); experiment: as above; format: biochemical; settings: read-out: KRAS G13C FRET IC50
Chain of KRAS G13C (P01116 other isoform, or with tags, fused parts or gaps G13C): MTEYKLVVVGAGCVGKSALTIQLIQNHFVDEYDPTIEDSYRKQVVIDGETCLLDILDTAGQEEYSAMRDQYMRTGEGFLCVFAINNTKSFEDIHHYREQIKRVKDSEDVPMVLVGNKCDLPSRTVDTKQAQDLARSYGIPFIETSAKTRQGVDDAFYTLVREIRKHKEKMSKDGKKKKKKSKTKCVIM
Chain of KRAS G13C (P62937 whole entry): as the sequence (P62937 whole entry) above
Procedure, shortened: as §1

KRAS G12D = KRAS G12D (Homo sapiens (Human), UniProt P01116+P62937, G12D); experiment: as above; format: biochemical; settings: read-out: KRAS G12D FRET IC50
Chain of KRAS G12D (P01116 other isoform, or with tags, fused parts or gaps G12D): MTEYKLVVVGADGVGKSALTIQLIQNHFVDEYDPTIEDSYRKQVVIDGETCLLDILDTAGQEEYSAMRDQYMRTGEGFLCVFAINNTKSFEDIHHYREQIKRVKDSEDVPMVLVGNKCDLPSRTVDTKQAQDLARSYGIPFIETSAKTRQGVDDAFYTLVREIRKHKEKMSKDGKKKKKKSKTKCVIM
Chain of KRAS G12D (P62937 whole entry): as the sequence (P62937 whole entry) above
Procedure, shortened: as §1

KRAS G13D = KRAS G13D (Homo sapiens (Human), UniProt P01116+P62937, G13D); experiment: as above; format: biochemical; settings: read-out: KRAS G13D FRET data IC50
Chain of KRAS G13D (P01116 other isoform, or with tags, fused parts or gaps G13D): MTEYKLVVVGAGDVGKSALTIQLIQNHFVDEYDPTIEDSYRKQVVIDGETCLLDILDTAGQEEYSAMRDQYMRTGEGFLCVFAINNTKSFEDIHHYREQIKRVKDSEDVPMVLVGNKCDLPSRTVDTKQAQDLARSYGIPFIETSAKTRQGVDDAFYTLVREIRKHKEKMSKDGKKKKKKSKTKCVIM
Chain of KRAS G13D (P62937 whole entry): as the sequence (P62937 whole entry) above
Procedure, shortened: as §1

NRAS G12C = NRAS G12C (Homo sapiens (Human), UniProt P01111+P62937, G12C); experiment: as above; format: biochemical; settings: read-out: NRAS G12C FRET data IC50
Chain of NRAS G12C (P01111 whole entry G12C): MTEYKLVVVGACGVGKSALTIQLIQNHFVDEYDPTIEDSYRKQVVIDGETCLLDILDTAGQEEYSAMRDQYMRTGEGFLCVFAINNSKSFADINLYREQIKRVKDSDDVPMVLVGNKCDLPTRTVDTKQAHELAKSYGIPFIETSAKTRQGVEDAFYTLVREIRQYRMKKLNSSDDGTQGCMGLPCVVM
Chain of NRAS G12C (P62937 whole entry): as the sequence (P62937 whole entry) above
Procedure, shortened: as §1

KRAS G12S = KRAS G12S (Homo sapiens (Human), UniProt P01116+P62937, G12S); experiment: as above; format: biochemical; settings: read-out: KRAS G12S FRET IC50
Chain of KRAS G12S (P01116 other isoform, or with tags, fused parts or gaps G12S): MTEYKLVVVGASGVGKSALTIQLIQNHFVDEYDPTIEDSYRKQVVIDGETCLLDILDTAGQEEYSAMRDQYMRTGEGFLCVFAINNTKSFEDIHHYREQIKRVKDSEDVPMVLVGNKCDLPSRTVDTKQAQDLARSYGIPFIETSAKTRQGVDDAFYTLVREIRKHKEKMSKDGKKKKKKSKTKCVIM
Chain of KRAS G12S (P62937 whole entry): as the sequence (P62937 whole entry) above
Procedure, shortened: as §1

KRAS G12V = KRAS G12V (Homo sapiens (Human), UniProt P01116+P62937, G12V); experiment: as above; format: biochemical; settings: read-out: KRAS G12V FRET IC50
Chain of KRAS G12V (P01116 other isoform, or with tags, fused parts or gaps G12V): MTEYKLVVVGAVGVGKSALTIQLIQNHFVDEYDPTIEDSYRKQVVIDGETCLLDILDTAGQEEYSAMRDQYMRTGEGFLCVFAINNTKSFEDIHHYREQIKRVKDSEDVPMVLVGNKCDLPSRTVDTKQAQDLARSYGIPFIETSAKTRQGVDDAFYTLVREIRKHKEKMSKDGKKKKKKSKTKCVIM
Chain of KRAS G12V (P62937 whole entry): as the sequence (P62937 whole entry) above
Procedure, shortened: as §1

Row | Compound | IC50 [1] [nM] | IC50 (KRAS G12C) [nM] | EC50 ([2]; Homo sapiens) [nM] | IC50 (NCI-H358 (K-Ras G12C); Homo sapiens, NCI-H358, 120 h) [nM] | IC50 ([3]; read-out: KRAS G12C FRET IC50) | IC50 (KRAS G13C) [nM] | IC50 (KRAS G12D) [nM] | also measured
1 | CCn1c(-c2cccnc2[C@H](C)OC)c2c3cc(ccc31)-c1cc(O)cc(c1)C[C@H](NC(=O)[C@H](C(C)C)N(C)C(=O)[C@@H]1CNC[C@@H]1C)C(=O)N1CCC[C@H](N1)C(=O)OCC(C)(C)C2 [Compound A128] | > 10000 | 10 to 100 | < 5000 | < 10 | 10 to 100 nM |  |  | 
2 | CCn1c(-c2cccnc2[C@H](C)OC)c2c3cc(ccc31)-c1cc(O)cc(c1)C[C@H](NC(=O)[C@H](C(C)C)N(C)C(=O)[C@H]1CCN(C(=O)[C@@]3(C)CCCN3)C1)C(=O)N1CCC[C@H](N1)C(=O)OCC(C)(C)C2 [Compound A135] | 1000 to 10000 |  |  | < 10 | < 10 nM |  |  | IC50 (NCI-H358 (K-Ras G12C)): 10 to 100 nM
3 | CCn1c(-c2cccnc2[C@H](C)OC)c2c3cc(ccc31)-c1cc(O)cc(c1)C[C@H](NC(=O)[C@H](C(C)C)N(C)C(=O)C1(CN)CC1)C(=O)N1CCC[C@H](N1)C(=O)OCC(C)(C)C2 [Compound A139] |  | 10 to 100 |  | 100 to 1000 | 10 to 100 nM | 10 to 100 | 10 to 100 | IC50 (KRAS WT): 10 to 100 nM; IC50 (KRAS G13D): 10 to 100 nM
4 | CCn1c(-c2cccnc2[C@H](C)OC)c2c3cc(ccc31)-c1csc(n1)C[C@H](NC(=O)[C@H](C(C)C)N1CCCC1=O)C(=O)N1CCC[C@H](N1)C(=O)OCC(C)(C)C2 [Compound A212] | > 10000 | 1000 to 10000 |  |  | 100 to 1000 nM and 1000 to 10000 nM | 1000 to 10000 | > 10000 | IC50 (NRAS G12C): 1000 to 10000 nM; IC50 (KRAS G12S): > 10000 nM; IC50 (KRAS WT): > 10000 nM; IC50 (KRAS G13D): > 10000 nM
5 | CCn1c(-c2cnccc2COC)c2c3cc(ccc31)-c1cc(O)cc(c1)C[C@H](NC(=O)[C@H](C(C)C)N(C)C(=O)[C@H]1CN(C(C)=O)C[C@H]1C(F)(F)F)C(=O)N1CCC[C@H](N1)C(=O)OCC(C)(C)C2 [Compound A215] | > 10000 | 100 to 1000 |  |  | 100 to 1000 nM and > 10000 nM | 10 to 100 | 1000 to 10000 | IC50 (NRAS G12C): 100 to 1000 nM; IC50 (KRAS G12S): 100 to 1000 nM; IC50 (KRAS WT): 100 to 1000 nM; IC50 (KRAS G12V): 100 to 1000 nM; IC50 (KRAS G13D): 100 to 1000 nM
6 | CCn1c(-c2cccnc2[C@H](C)OC)c2c3cc(ccc31)-c1csc(n1)C[C@H](NC(=O)[C@H](C(C)C)N1CCC3(CCN(S(C)(=O)=O)C3)C1=O)C(=O)N1CCC[C@H](N1)C(=O)OCC(C)(C)C2 (some centres unmarked) [Compound A220] |  | 1000 to 10000 |  | > 10000 |  | 1000 to 10000 | > 10000 | IC50 (NRAS G12C): 1000 to 10000 nM; IC50 (KRAS G12S): 1000 to 10000 nM; IC50 (KRAS WT): 1000 to 10000 nM; IC50 (KRAS G12V): 1000 to 10000 nM; IC50 (KRAS G13D): > 10000 nM; IC50 ([3]; KRAS G12C FRET IC50): 100 to 1000 nM and 1000 to 10000 nM
7 | CCn1c(-c2cccnc2[C@H](C)OC)c2c3cc(ccc31)-c1csc(n1)C[C@H](NC(=O)[C@H](C(C)C)N(C)C(=O)N1CCN(C(=O)CN(C)C)CC1)C(=O)N1CCC[C@H](N1)C(=O)OCC(C)(C)C2 [Compound A290] |  |  | < 5000 | < 10 | < 10 nM |  |  | 
8 | CCn1c(-c2cccnc2[C@H](C)OC)c2c3cc(ccc31)-c1csc(n1)C[C@H](NC(=O)[C@H](C(C)C)N(C)C(=O)N1CCCOCC1)C(=O)N1CCC[C@H](N1)C(=O)OCC(C)(C)C2 [Compound A335] |  |  | < 5000 | 10 to 100 | 100 to 1000 nM |  |  | 
9 | CCO[C@@H]1c2nc(cs2)-c2ccc3c(c2)c(c(-c2cc([C@H]4CCN5CCOC[C@@H]5C4)cnc2[C@H](C)OC)n3CC)CC(C)(C)COC(=O)[C@@H]2CCCN(N2)C(=O)[C@H]1NC(=O)[C@H]1[C@H](C)[C@@H]1C [Compound A390, (1r,2R,3S)—N-((6^3S,3S,4S,Z)-3-ethoxy-1^1-ethyl-1^2-(2-((S)-1-methoxyethyl)-5-((8R,9aS)-octahydropyrido [2,1-c][1,4]oxazin-8-yl)pyridin-3-yl)-10,10-dimethyl-5,7-dioxo-6^1,6^2,6^3,6^4,6^5,6^6-hexahydro-1^1H-8-oxa-2 (4,2)-thiazola-1 (5,3)-indola-6 (1,3)-pyridazinacycloundecaphane-4-yl)-2,3-dimethylcyclopropane-1-carboxamide] |  |  |  |  | 100 to 1000 nM |  |  | EC50 [2]: < 5000 nM; IC50 (NCI-H358 (K-Ras G12C)): 100 to 1000 nM
10 | CCn1c(-c2cccnc2[C@H](C)OC)c2c3cc(ccc31)C1=C[C@@H](O)CN(C1)C[C@H](NC(=O)[C@H]1[C@H](C)[C@@H]1C)C(=O)N1CCC[C@H](N1)C(=O)OCC(C)(C)C2 [Compound A424, (1R,2R,3S)—N-((2^3R,6^3S,4S)-1^1-ethyl-23-hydroxy-1^2-(2-((S)-1-methoxyethyl)pyridin-3-yl)-10,10-dimethyl-5,7-dioxo-2^1,2^2,2^3,2^6,6^1,6^2,6^3,6^4,6^5,6^6-decahydro-1^1H-8-oxa-1 (5,3)-indola-6 (1,3)-pyridazina-2 (5,1)-pyridinacycloundecaphane-4-yl)-2,3-dimethylcyclopropane-1-carboxamide] |  | 10 to 100 |  |  | 100 to 1000 nM | 10 to 100 | 100 to 1000 | IC50 (KRAS G12S): 10 to 100 nM; IC50 (KRAS G12V): 10 to 100 nM; EC50 [2]: < 5000 nM; IC50 (NCI-H358 (K-Ras G12C)): 100 to 1000 nM
11 | CCn1c(-c2cccnc2[C@H](C)OC)c2c3cc(ccc31)-c1csc(n1)C[C@H](NC(=O)[C@H](C(C)C)N(C)C(=O)N1CC[C@H]3CN(C)C[C@H]31)C(=O)N1CCC[C@H](N1)C(=O)OCC(C)(C)C2 [Compound A471] | 100 to 1000 |  |  | 10 to 100 | 100 to 1000 nM |  |  | 
12 | CCn1c(-c2cccnc2[C@H](C)OC)c2c3cc(ccc31)-c1csc(n1)C[C@H](NC(=O)[C@H](C(C)C)N(C)C(=O)N1CC3(CCN(C)CC3)C1)C(=O)N1CCC[C@H](N1)C(=O)OCC(C)(C)C2 [Compound A513] |  |  | < 5000 | < 10 | 10 to 100 nM |  |  | 
13 | CCn1c(-c2cccnc2[C@H](C)OC)c2c3cc(ccc31)-c1csc(n1)C[C@H](NC(=O)[C@H](C1CCCC1)N(C)C(=O)N1CCN(C)CC1)C(=O)N1CCC[C@H](N1)C(=O)OCC(C)(C)C2 [Compound A525] |  |  | < 5000 | < 10 | 10 to 100 nM |  |  | 
14 | CCn1c(-c2cccnc2[C@H](C)OC)c2c3cc(ccc31)-c1csc(n1)C[C@H](NC(=O)[C@H](C(C)C)N(C)C(=O)N1CCC(N(C)C)CC1)C(=O)N1CCC[C@H](N1)C(=O)OCC(C)(C)C2 [Compound A571] |  |  | < 5000 | < 10 |  |  |  | IC50 ([3]; KRAS G12C FRET IC50): 100 to 1000 nM
15 | CCn1c(-c2cccnc2[C@H](C)OC)c2c3cc(ccc31)-c1csc(n1)C[C@H](NC(=O)[C@H](C(C)C)N(C)C(=O)N1CCC13CCOCC3)C(=O)N1CCC[C@H](N1)C(=O)OCC(C)(C)C2 [Compound A601] |  |  | < 5000 | < 10 | < 10 nM |  |  | 
